The values below come from PubChem BioAssay (NCI).

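Growth conditions: 96-well plates. Treatment: test compound, 48 hours, 5 concentrations. Analysis: linear interpolation between bracketing concentrations; unreached endpoints set to highest concentration. GI50 = concentration required for 50% inhibition of growth. At the TGI there is no net growth.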 Where a SMILES comes first, the peptide text is derived from it. The star is where a group is joined. Boc = CC(C)(C)OC(=O)*

Assay in all cases: NCI tumour cell line growth inhibition, 48 h
Assay [1] deals with HOP-92 NSCLC.
For assay [2], the system named is T-47D breast.
The test system of assay [3] is SNB-19 CNS.
Assay [4] deals with SN12C renal.
Assay [5] concerns MDA-N.
For assay [6], the system named is SK-MEL-5 melanoma.
Assay [7] has as its system NCI-H226 lung.
Assay [8] has as its system SK-MEL-28 melanoma.
The subject of assay [9] is SR leukemia.
Assay [10] has as its system EKVX NSCLC.

For the molecule `Cc1ccc2c(c1)-c1nc(N)c(C#N)c(-c3ccccc3)c1CCS2(=O)=O`, the TGI in [1] is 80.3 µM; in assay [2], more than 100 µM; in [3] it was 67.7 µM; in [4] it was more than 100 µM; in assay [5] it was more than 100 µM; in [6] it was more than 100 µM. In addition, the TGI in assay [7] is 78.5 µM; in [8], more than 100 µM.
On to `COC(=O)C(Cc1c[nH]c2ccccc12)NC(=O)C(Cc1c[nH]c2ccccc12)NC(=O)C(Cc1c[nH]c2ccccc12)NC(=O)C(Cc1c[nH]c2ccccc12)NC(=O)C(Cc1c[nH]c2ccccc12)NC(=O)C(Cc1c[nH]c2ccccc12)NC(=O)C(Cc1c[nH]c2ccccc12)NC(=O)C(Cc1c[nH]c2ccccc12)NC(=O)OC(C)(C)C` (stereo not drawn) (Boc-WWWWWWWW-OMe; configuration not given here), for which the TGI was more than 100 µM in [3]; more than 100 µM in assay [4]; more than 100 µM in assay [5]; 73.3 µM in [6]; more than 100 µM in assay [9]; more than 100 µM in assay [7]. The TGI in [8] was more than 100 µM.
For `Cc1cc(S(=O)(=O)Nc2nc3ccccc3c(=O)n2N)c(S)cc1Cl`, the GI50 in [3] is 15.7 µM. Besides, the TGI in assay [3] is 47.2 µM; in assay [10], more than 100 µM; in assay [4] it was more than 100 µM; in assay [5], more than 100 µM; in assay [6], more than 100 µM; in [7], 67.1 µM. In assay [8], this molecule had a TGI of more than 100 µM.
For `O=C1c2ccccc2C(=O)N1CC(O)COc1cccc2ccccc12` (stereo not drawn), the TGI in assay [3], in assay [10], in assay [5], in [6], in assay [9] and in assay [8] was more than 100 µM each time.
For `COCN1C(=O)[C@@H]2CCCN2C(=O)c2cc(N)ccc21`, the TGI in assay [2], in [3], in [10], in assay [4], in assay [5] and in [8] was more than 100 µM in each case.
Turning to `CC(=O)Nc1c(C)cc2c(nc3n2CCC3O)c1[N+](=O)[O-]` (stereo not drawn), the TGI in [1], in assay [2], in [3], in assay [10], in assay [4] and in assay [5] was more than 100 µM throughout. The TGI in [6], in assay [7] and in [8] was more than 100 µM in each case.
For `COc1cc(/C=c2\sc3n(c2=O)C(c2ccc(Cl)cc2)C2=C(CCCC2C)N=3)cc(OC)c1OC` (stereo not drawn), the TGI in assay [1], in [3], in [10], in [4], in assay [5] and in assay [6] was more than 100 µM throughout. For the same molecule, the TGI in assay [9] and in [8] was more than 100 µM in each case.
On to `C(=C\c1ccco1)/c1cccc(/C=C/c2ccco2)n1`, for which the TGI in assay [1], in assay [3], in assay [10], in assay [4], in [5] and in [6] was more than 50 µM in each case. Also, the TGI in assay [9], in [7] and in assay [8] was more than 50 µM in each case.
In the case of `N/C(=N\N=C\c1ccc2c(c1)OCCO2)NO`, the TGI was 80.6 µM in [1]; more than 32.6 µM in assay [3]; more than 100 µM in assay [10]; more than 100 µM in assay [4]; 22.4 µM in [6]; 27.5 µM in assay [7]. In assay [8], this molecule had a TGI of more than 100 µM.
Consider `C=C1CCC([N+](=O)[O-])[C@](C)(N=O)CC[C@@H]2C1CC2(C)C` (stereo partly drawn), for which the TGI in assay [1] is 44.9 µM; in assay [3], 77.9 µM; in assay [10] it was 40.4 µM; in assay [4], more than 100 µM; in assay [5], more than 100 µM; in assay [6], 28.6 µM. The TGI was more than 100 µM in assay [9] and 30.9 µM in assay [7].
`COC(=O)C1(C)C=CC(=O)C2(C)C1C(O)C1OC3CC(c4ccoc4)C(C)=C3C1(C)C2CC(=O)O` (stereo not drawn): the TGI in assay [1], in assay [2], in [3], in assay [10], in assay [4] and in assay [5] was more than 100 µM in each case. The TGI in assay [6] and in assay [8] was more than 100 µM in each case.
Take `Cn1c(-c2cccc([N+](=O)[O-])c2)[n+](C)c2ccccc21`: the TGI in assay [1], in assay [2], in assay [3], in [10], in assay [6] and in assay [9] was more than 100 µM in each case. Further, the TGI in [7] and in [8] was more than 100 µM each time.
In the case of `O=C(NNC(=S)NC1CCCCC1)c1csc(NC(=S)NC2CCCCC2)n1`, the TGI in assay [2] was 74.6 µM; in [3], 44.8 µM; in assay [10] it was more than 100 µM; in [4], 25.9 µM; in assay [6], 8.79 µM; in assay [9], more than 100 µM. Moreover, in [7], the TGI is more than 100 µM.
For `COc1ccc(-c2cc3[nH]nc(N)c3c(=O)o2)cc1`, the TGI in assay [1], in assay [3], in assay [10], in assay [4], in assay [6] and in [9] was more than 100 µM throughout. This molecule also showed a TGI in assay [8] of more than 100 µM.
For the molecule `C=CCc1cccc2cc(C(=O)Nc3ccccn3)c(=N)oc12`, the TGI in [1], in assay [2], in assay [3], in assay [4], in assay [6] and in assay [9] was more than 100 µM each time. Moreover, the TGI in assay [7] and in [8] was more than 100 µM each time.
In the case of `COc1ccc(/C=C2\CCC(C)C3=C2N=c2s/c(=C/c4cccc(Br)c4)c(=O)n2C3c2ccc(OC)c(OC)c2)cc1OC` (stereo not drawn), the TGI in assay [1], in assay [3], in assay [10], in [4], in assay [5] and in assay [6] was more than 100 µM in each case. The TGI in assay [9] and in assay [8] was more than 100 µM each time.
For the molecule `COI1NC(=O)c2ccccc21`, the TGI in [1], in assay [3], in assay [10], in assay [4], in [5] and in [6] was more than 100 µM in each case. Also, the TGI in assay [9], in assay [7] and in assay [8] was more than 100 µM in each case.
Regarding `Cc1ccccc1S(=O)(=O)Nn1cnc2ccc(S(=O)(=O)Nc3ccc(Cl)cc3)cc2c1=O`, the TGI in assay [1], in assay [3], in assay [10], in assay [4], in [5] and in [9] was more than 100 µM in each case. In addition, the TGI in [7] and in assay [8] was more than 100 µM each time.
For the molecule `Oc1ccc(-c2nc3ccc(Cl)cc3s2)cc1`, the TGI amounted to 40.4 µM in assay [3]; 31 µM in [10]; 35.7 µM in assay [4]; 37.6 µM in [5]; 35.7 µM in assay [6]; 51.1 µM in assay [9]. The molecule further had a TGI in assay [7] of 41.6 µM.
As for `COc1cc2c(cc1OCCCC(=O)Nc1ccc3ccc4cccc5ccc1c3c45)N=C[C@@H]1CCCN1C2=O`, the GI50 in assay [1] was 0.147 µM; in assay [10] it was 0.0299 µM; in assay [4], less than 0.0136 µM; in assay [9], less than 0.01 µM; in assay [7], less than 0.0109 µM; in assay [8] it was less than 0.01 µM. Further, the TGI was 1.07 µM in [1]; 0.169 µM in assay [10]; 0.0423 µM in assay [4]; less than 0.0243 µM in assay [7]; less than 0.01 µM in assay [8].
Regarding `CC(=O)c1cc2ccccc2oc1=O`, the TGI in assay [1], in assay [3], in assay [10], in assay [4], in assay [5] and in assay [6] was more than 100 µM each time. The TGI in assay [9], in [7] and in assay [8] was more than 100 µM each time.
`O=c1/c(=C/c2ccc(-c3ccc(Cl)cc3Cl)o2)sc2n1[C@@H](c1ccc(Cl)cc1)C=C(c1cc(F)c(Cl)cc1Cl)N=2`: the TGI in [1] is 61.7 µM; in assay [2], more than 100 µM; in [3] it was more than 100 µM; in [4] it was more than 100 µM; in [5] it was more than 100 µM; in [6] it was more than 100 µM. Besides, the TGI in assay [7] and in assay [8] was more than 100 µM in each case.
Regarding `CN(C)c1nc(Cl)c2c(-c3ccccc3)c(-c3ccccc3)oc2n1`, the TGI in assay [1], in [2], in assay [3], in assay [10], in [4] and in assay [6] was more than 100 µM throughout. The TGI in assay [9], in [7] and in [8] was more than 100 µM throughout.
For the molecule `O=C(Nc1nc(C23CC4CC(CC(C4)C2)C3)cs1)c1cc2ccccc2oc1=O`, the TGI in assay [1], in assay [3], in [10], in assay [4], in assay [5] and in assay [6] was more than 100 µM each time. Moreover, the TGI in assay [9], in assay [7] and in assay [8] was more than 100 µM each time.
As to `OC(c1cc(C23CC4CC(CC(C4)C2)C3)nc2c(Cl)cc(Cl)cc12)C1CCCCN1` (stereo not drawn), the TGI in [1] is 2.67 µM; in assay [10] it was 3.59 µM; in assay [4], 3.13 µM; in assay [9], 2.84 µM; in [7], 3.77 µM.
For `COc1ccccc1C(=O)c1c(NCc2ccccc2)c(=O)c1=O`, the TGI in assay [1], in assay [3], in assay [10], in [4], in [5] and in assay [6] was more than 100 µM throughout. Besides, the TGI in assay [7] was more than 100 µM; in [8], 35.8 µM.
Turning to `COc1cc(Cc2nccc3cc(OC)c(OC)cc23)c(N=NN(C)C)cc1OC`, the TGI in [2] is 25.4 µM; in assay [3] it was 85.2 µM; in [10], 42.4 µM; in assay [4], 41.3 µM; in assay [5], 46.1 µM; in assay [6], 26.4 µM. Also, the TGI in assay [7] came to 60 µM; in [8], 31.1 µM.
`C=C1C2C[C@@H]3O[C@H]4C[C@H]5O[C@@]6(C[C@@H]7O[C@]8(C[C@H](C)[C@@H]9O[C@@H]%10CC(CO)O[C@@H]%10C[C@@H]9O8)C[C@H](C)[C@@H]7O6)C[C@H]5O[C@H]4[C@H](C)[C@H]3OC(=O)C[C@H]3CC[C@@H]4OC5[C@H]6O[C@]7(CC[C@H]8CC(=C)[C@H](CC[C@@H](C[C@H]1C)O2)O8)CC6O[C@@H]5[C@@H](O7)[C@H]4O3` (stereo partly drawn): the TGI is more than 1 µM in assay [1]; more than 1 µM in assay [3]; more than 1 µM in [10]; more than 1 µM in assay [4]; 0.00332 µM in assay [6]; more than 1 µM in assay [9]. This molecule also yielded a TGI in assay [7] of 0.00022 µM.
In the case of `CC1(C)OCC=CCO1`, the TGI in assay [1], in assay [2], in assay [3], in [10], in [4] and in [5] was more than 100 µM each time. The TGI in [6], in assay [7] and in assay [8] was more than 100 µM each time.
In the case of `CCC(C#N)NCc1cccc(CNC(C#N)CC)c1` (stereo not drawn), the TGI in assay [1], in [2], in assay [3], in assay [10], in assay [4] and in assay [5] was more than 100 µM throughout. The TGI in assay [6], in assay [7] and in [8] was more than 100 µM each time.
